{FAM} = 6-carboxyfluorescein (6-FAM) label
Legend:
[1] = target: T1, central domain of ERCC1 (ERCC196-214) (Homo sapiens, UniProt P07992); settings: Tsodikov et al., 2005; direct titration; read-out: equilibrium binding constant for DNA binding to the central domain of ERCC1; cited from earlier work
T1 construct: His6 (N); made in house; host or cells: E. coli BL21(DE3)
T1 sequence (P07992 96-214): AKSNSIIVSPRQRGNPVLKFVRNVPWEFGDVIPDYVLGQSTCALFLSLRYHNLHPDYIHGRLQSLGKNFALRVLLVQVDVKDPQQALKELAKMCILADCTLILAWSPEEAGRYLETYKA

[2] = system: NER activity in XP-A (XP2OS) cell extracts; test: In vitro NER assay in XP-A (XP2OS) cell extract supplemented with wild-type or mutant XPA protein; assay type: biochemical; settings: XPA-deficient cell extract, 200 and 800 nM XPA, cisplatin crosslink plasmid
Description: In Vitro NER assay. […] The wild-type, […], […] and […]/[…]

[3] = system: DNA three-way junction; test: DNA binding assay (band shift) with 5'-labeled DNA three-way junction; settings: 1 nM DNA, 4-150 nM XPA
Experimental: DNA binding assays. The three-way junction DNA substrate described previously (substrate 7 in Table 1 of Hohl et al., 2003, J. Biol. Chem., 278, 19500-19508) was 5′-^32P-end labeled and incubated at 1 nM concentration with various amounts of XPA in EMSA buffer (25 mM Hepes·KOH pH 8.0, 30 mM KCl, 10% glycerol, 1 mM DTT, 1 mM EDTA, 0.1 mg/ml BSA) at a reaction volume of 15 μl. After equilibration at room temperature for 30 min, the samples were loaded on a 5% (37.5:1) native polyacrylamide gel containing 0.5×TBE and electrophoresed at 90 V for 2 hrs. Gels were dried and the radioactive bands visualized by autoradiography.

[4] = target: T2, XPA67-80 peptide (KIIDTGGGFILEEE) (Homo sapiens, UniProt P23025 SEQ:67-80); test: FP; peptide does not detectably bind DNA (data not shown); nonspecific anisotropy increase and quenching above 30 uM; settings: protein: synthetic; tags: synthetic peptide, solid phase, HPLC-purified; label: 5' 6-FAM
T2 chain: KIIDTGGGFILEEE

[5] = target: T3, ERCC1 central domain (ERCC1 96-214 / 92-214) (Homo sapiens, UniProt P07992 SEQ:96-214); test: FP; 2.33 uM ERCC1, 50 nM DNA; XPA67-80 peptide competes (EC50 micromolar); 20 mM Tris pH 8.0, 20 mM NaCl, 2 mM bME; settings: tags: N-terminal His6; label: 5' 6-FAM
T3 sequence: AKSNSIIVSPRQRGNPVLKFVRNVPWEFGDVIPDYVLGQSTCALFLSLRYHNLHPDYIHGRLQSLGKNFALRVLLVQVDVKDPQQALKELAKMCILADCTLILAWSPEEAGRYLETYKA

Molecule: DNA: 5' 6-FAM-labeled single-stranded 40mer DNA, 5'-CCGGTGGCCAGCGCTCGGCG(T)20 (DNA CCGGTGGCCAGCGCTCGGCGTTTTTTTTTTTTTTTTTTTT; DNA, 5' {FAM}, backbone not given here)
- Kd [1]: 1500 nM

Molecule: XPA-WT: purified full length wild-type XPA protein expressed in E. coli
- NER activity restored by XPA protein [2]: robust NER activity
- binding to DNA three-way junction [3]: bound with similar affinity

Molecule: CCGGTGGCCAGCGCTCGGCGTTTTTTTTTTTTTTTTTTTT (ssDNA) [6FAM-labeled 40mer ssDNA]
- binding result [4]: no binding
- binding result [5]: binds

— US20100331233A1, “CRYSTAL OF XPA AND ERCC1 COMPLEX AND USES THEREOF” (priority 2007, published 2010)
